Read-outs that look alike come from different tables or passages of the source.
Assays:
Format in all cases: cell-based
[1] = tested on: colon HCT-116; test: COMPARE screening (NCI human cancer cell line screen), cytotoxicity GI50
Protocol: (§1) Selected compounds were tested for antiproliferative activity in the National Cancer Institute's developmental therapeutics assay 60 cell line screen (NCI60). The cells were incubated with the tested compounds at 100, 10, 1, 0.1, and 0.01 μM concentrations for 48 h before treatment with sulforhodamine B dye. Optical densities were recorded, and their ratios relative to that of the control were plotted as percentage growth against the log 10 of the tested compound concentrations.

[2] = tested on: melanoma UACC-62; test: as above
Protocol: as §1

[3] = tested on: ovarian OVCAR-3; test: as above
Protocol: as §1

[4] = tested on: CNS SF-539; test: as above
Protocol: as §1

[5] = tested on: prostate DU-145; test: as above
Protocol: as §1

[6] = tested on: renal SN12C; test: as above
Protocol: as §1

[7] = tested on: all human cancer cell lines successfully tested; test: NCI screen mean graph midpoint (MGM) for growth inhibition
Protocol: COMPARE screening. The compounds described herein were examined for antiproliferative activity against the human cancer cell lines in the National Cancer Institute screen (COMPARE screening), in which the activity of each compound was evaluated with approximately 55 different cancer cell lines of diverse tumor origins. […] Therefore, the MGM value represents an overall assessment of toxicity of the compound across numerous cell lines.
as §1
The cytotoxicities of the compounds to cultured cancer cells were measured in the National Cancer Institute's 60 cell line assay (a.k.a. NCI-60).

[8] = tested on: breast MDA-MB-435; test: COMPARE screening (NCI human cancer cell line screen), cytotoxicity GI50
[9] = tested on: lung HOP-62; test: as above
Protocol: as §1

[10] = Table 1, average GI50 of all cell lines tested (approximately 55), test range 10^−8 to 10^−4 molar
[11] = Homo sapiens, HOP-62, read-out: cytotoxicity (GI50) lung HOP-62
[12] = Homo sapiens, UACC-62, read-out: cytotoxicity (GI50) melanoma UACC-62
[13] = Homo sapiens, OVCAR-3, read-out: cytotoxicity (GI50) ovarian OVCAR-3
[14] = Homo sapiens, CNSSF-539, read-out: cytotoxicity (GI50) CNS SF-539
[15] = Homo sapiens, DU-145, read-out: cytotoxicity (GI50) prostate DU-145
[16] = Homo sapiens, SN12C, read-out: cytotoxicity (GI50) renal SN12C
[17] = Homo sapiens, MDA-MB-435, read-out: cytotoxicity (GI50) breast MDA-MB-435
[18] = Homo sapiens, HCT-116, read-out: cytotoxicity (GI50) colon HCT-116
[19] = all human cancer cell lines successfully tested

SMILES | GI50 [1] | GI50 [2] | GI50 [3] | GI50 [4] | GI50 [5] | GI50 [6] | GI50 [8] | MGM (mean GI50 across cell lines) [7, 10] | GI50 [9] | also measured
COc1ccc2c(c1)C(=O)c1c-2n(CCCI)c(=O)c2cc([N+](=O)[O-])ccc12 [Compound 5bd] | 0.046 µM | 0.148 µM | 3.02 µM | 0.058 µM | 0.034 µM | 0.309 µM | 1.48 µM |  |  | MGM (mean graph midpoint for growth inhibition) [7, 10]: 0.328 ± 0.046 µM
O=C1c2ccccc2-c2c1c1ccccc1c(=O)n2CCCn1ccnc1 [Compound 5g] | 1.41 µM | 0.79 µM | 1.66 µM | 2.34 µM | 1.41 µM | 1.66 µM |  | 1.86 µM |  | 
CC(C)(C)OC(=O)NCCCCCCCCCn1c2c(c3ccccc3c1=O)C(=O)c1ccccc1-2 [Compound 5ah, 6-(9′-tert-BOC-Aminononyl)-5,6-dihydro-5,11-dioxo-11H-indeno[1,2-c]isoquinoline] |  | 17.4 µM | 28.8 µM | 17.8 µM | > 100 µM | 77.6 µM | > 100 µM | 50.1 µM | 24.5 µM | 
Cl.O=C1c2ccccc2-c2c1c1ccccc1c(=O)n2CCc1ccccn1 [Compound 5ay, 5,6-Dihydro-5,11-dioxo-6-(2-pyridylethyl)-11H-indeno[1,2-c]isoquinoline Hydrochloride] |  |  |  |  |  |  |  | 53.7 µM |  | GI50 [9, 11]: 21.4 µM; GI50 [2, 12]: 27.5 µM; GI50 [3, 13]: > 100 µM; GI50 [4, 14]: 17.4 µM; GI50 [5, 15]: 74.1 µM; GI50 [6, 16]: 77.6 µM; GI50 [8, 17]: 5.13 µM
Cl.O=C1c2ccccc2-c2c1c1ccccc1c(=O)n2CCCNCCO [Compound 5bo] |  | 0.178 µM | 0.55 µM | 0.55 µM | 0.174 µM | 0.269 µM | 0.49 µM | 0.339 µM | 0.195 µM | 
O=C1c2ccccc2-c2c1c1ccc([N+](=O)[O-])cc1c(=O)n2CCCBr [Compound 5bb, 6-(3-Bromopropyl)-5,6-dihydro-5,11-dioxo-3-nitro-11H-indeno[1,2-c]isoquinoline] |  |  |  |  |  |  |  | 40.0 µM |  | GI50 [1, 18]: 3.47 µM; GI50 [2, 12]: > 100 µM; GI50 [3, 13]: > 100 µM; GI50 [4, 14]: > 100 µM; GI50 [5, 15]: > 100 µM; GI50 [6, 16]: > 100 µM; GI50 [8, 17]: > 100 µM
COc1ccc2c(c1)C(=O)c1c-2n(CCCNCCO)c(=O)c2cc([N+](=O)[O-])ccc12.Cl [Compound 5bm] |  | < 0.01 µM | < 0.01 µM | < 0.01 µM | < 0.03 µM | 0.012 µM | < 0.01 µM | 0.016 µM | < 0.01 µM | 
CN(CCCn1c2c(c3ccccc3c1=O)C(=O)c1ccccc1-2)CCCn1c2c(c3ccccc3c1=O)C(=O)c1ccccc1-2 [Compound 12d, Bis{(5,6-dihydro-5,11-diketo-11H-indeno[1,2-c]isoquinoline)-6-propyl}methylamine] |  |  |  |  |  |  |  |  |  | GI50 ([2]; melanoma UACC-62, concentration corresponding to 50% growth inhibition, read-out: cytotoxicity (GI50 in μM) melanoma UACC-62): 2 µM; GI50 ([3]; ovarian OVCAR-3, concentration corresponding to 50% growth inhibition, read-out: cytotoxicity (GI50 in μM) ovarian OVCAR-3): 1.2 µM; GI50 ([4]; CNS SF-539, concentration corresponding to 50% growth inhibition, read-out: cytotoxicity (GI50 in μM) CNS SF-539): 1.12 µM; GI50 ([6]; renal SN12C, concentration corresponding to 50% growth inhibition, read-out: cytotoxicity (GI50 in μM) renal SN12C): 0.589 µM; MGM (mean graph midpoint for growth inhibition) [7, 19]: 0.934 ± 0.476 µM; GI50 ([8]; breast MDA-MB-435, concentration corresponding to 50% growth inhibition, read-out: cytotoxicity (GI50 in μM) breast MDA-MB-435): 1.55 µM
O=C1c2ccccc2-c2c1c1ccc([N+](=O)[O-])cc1c(=O)n2CCCN1CCOCC1 [Compound 5bi] | 0.038 µM | 0.38 µM |  | 0.095 µM | 0.085 µM | 0.309 µM | 1.23 µM |  | 0.021 µM | MGM (mean graph midpoint for growth inhibition) [7, 10]: 0.632 ± 0.029 µM
O=C(O)C(F)(F)F.O=C(O)C(F)(F)F.O=C1c2ccccc2-c2c1c1ccccc1c(=O)n2CCCNCCNCCCn1c2c(c3ccccc3c1=O)C(=O)c1ccccc1-2 [Compound 14e, Bis-1,2-{(5,6-dihydro-5,11-diketo-11H-indeno[1,2-c]isoquinoline)-6-propylamino}ethane Bis(trifluoroacetate)] | < 0.01 µM | 0.052 µM | 1.02 µM |  | < 0.01 µM | < 0.01 µM | 0.933 µM |  | < 0.01 µM | MGM (mean graph midpoint for growth inhibition) [7, 19]: 0.152 ± 0.062 µM
COc1cc2c3c(n(CCCN(C)C)c(=O)c2cc1OC)-c1ccccc1C3=O [Compound 5a] | 2.45 µM | 6.61 µM | 5.89 µM | 6.17 µM | 4.47 µM | 11 µM | 7.08 µM | 6.17 µM |  | 
O=C1c2ccccc2-c2c1c1ccccc1c(=O)n2Cc1ccccn1 [Compound 5aw, 5,6-Dihydro-5,11-dioxo-6-(2-pyridylmethyl)-11H-indeno[1,2-c]isoquinoline] |  |  |  |  |  |  |  | 15.1 µM |  | GI50 [9, 11]: 11.2 µM; GI50 [2, 12]: 10.7 µM; GI50 [3, 13]: 13.8 µM; GI50 [4, 14]: 12.3 µM; GI50 [5, 15]: 13.5 µM; GI50 [6, 16]: 28.2 µM; GI50 [8, 17]: 3.09 µM
CC(C)(C)OC(=O)NCCCCCCCCn1c2c(c3ccccc3c1=O)C(=O)c1ccccc1-2 [Compound 5ag, 6-(8′-tert-BOC-Aminooctyl)-5,6-dihydro-5,11-dioxo-11H-indeno[1,2-c]isoquinoline] | 25.7 µM | 15.5 µM |  | 8.71 µM | > 50.1 µM | > 50.1 µM | > 50.1 µM | 19.9 µM | 10.7 µM | 
CC(C)(C)OC(=O)NCCCCCCCn1c2c(c3ccccc3c1=O)C(=O)c1ccccc1-2 [Compound 5af, 6-(7′-tert-BOC-Aminoheptyl)-5,6-dihydro-5,11-dioxo-11H-indeno[1,2-c]isoquinoline] | 17.4 µM | 20 µM | 33.9 µM | 20.9 µM | 31.6 µM | 74.1 µM | 81.3 µM | 30.9 µM |  | 
[N-]=[N+]=NCCCn1c2c(c3ccccc3c1=O)C(=O)c1ccccc1-2 [Compound 5bh] | 4.9 µM | 19.5 µM | 7.94 µM |  | 29.5 µM | 25.1 µM | 7.76 µM | 12.3 µM | 7.59 µM | 
COc1cc2c3c(oc(=O)c2cc1OC)-c1ccccc1C3=O [Compound 4a, 2,3-dimethoxybenz[d]indeno[1,2-b]pyran-5,11-dione] |  |  |  |  |  |  |  |  |  | GI50 [1, 18]: ≥ 100 µM; GI50 [2, 12]: ≥ 100 µM; GI50 [3, 13]: ≥ 100 µM; GI50 [4, 14]: ≥ 100 µM; GI50 [5, 15]: ≥ 100 µM; GI50 [6, 16]: ≥ 100 µM; MGM (mean GI50 across cell lines) ([7]; Homo sapiens): ≥ 100 µM; GI50 [8, 17]: ≥ 100 µM

— patent publication US9796753B2, “N-substituted indenoisoquinolines and syntheses thereof” (Purdue Research Foundation, priority 2005, dated 2017)
